# Test results from patent publication US6207393A, “Inhibition of intracellular signal transduction by 14-3-3-binding peptides” (Washington University, priority 1999, dated 2001).
# “And” between values parts separate entries of the source, which are not always exact repeats. Equal entries are not always repeated. Where a SMILES comes first, the peptide text is derived from it. [ ]: non-standard residue; d: D form. pS = N[C@@H](COP(=O)(O)O)C(=O)O
# Columns and labels:
# 14-3-3 zeta [1] = biological target: T1, 14-3-3 zeta (Homo sapiens, UniProt P63104); assay: Surface plasmon resonance, GST-14-3-3 zeta binding to immobilized biotinylated Raf-259 peptide (binding and kinetics); conditions: isoform zeta
# T1 construct: made in house; host or cells: E. coli DH5α (vector pGEX-KT)
# T1 sequence (P63104 1-245): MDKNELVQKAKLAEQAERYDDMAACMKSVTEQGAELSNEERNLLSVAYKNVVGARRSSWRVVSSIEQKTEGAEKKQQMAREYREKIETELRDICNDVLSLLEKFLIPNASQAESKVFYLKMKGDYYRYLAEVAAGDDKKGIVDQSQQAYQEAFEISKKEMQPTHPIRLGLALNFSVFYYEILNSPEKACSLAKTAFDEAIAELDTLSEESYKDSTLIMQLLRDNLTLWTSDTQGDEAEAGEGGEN
# Method: These experiments were performed using the BIAcore 2000 (Pharmacia). The basic principles and detection methods have been reviewed previously (Jonsson et al. Biotech. 11:620-7, 1991; Jonsson et al. Ann Bio Clin 51:19-26, 1993 which are incorporated by reference). In brief, 5 μl of the biotinylated raf-259 peptide (1 nM) was immobilized onto streptavidin-coated (SA5, Pharmacia) sensor chips at a flow rate of 5 μl/min at 25° C. […] To phosphorylate the immobilized peptides, 5 U of PKA in a buffer containing 200 μM ATP in 50 μl was infused over the chip at a flow rate of 2 μl/min at 30° C.
# (§1) Because the surface plasmon resonance detects binding in real time, this method can be used to directly determine the rates of association (kon) and dissociation (koff). For these kinetic measurements, GST/14-3-3 fusion proteins were injected over a range of concentrations between 200 nM and 5 μM. The "on" rate, kon, was determined by calculating dR/dt for the initial linear portion of association using the Biaevaluation software (Pharmacia). Because ligand rebinding to the sensor chip can affect the "off" rate (koff, Panayotou et al. Mol Cell Biol 13:3567-76, 1993 which is incorporated by reference), we measured the "off" rate in the presence of 50 μM free ligand by using the coinject function of the Biacore. The "off" rate measured in the absence of 50 μM free ligand was approximately 10-fold lower.
# The biotinylated, […] Raf-1 peptide (SEQ ID NO: 4) was coupled to avidin coated chip surface to study the kinetics of its binding to 14-3-3 zeta. The association rate was determined to be approximately 2.3×10^4 M^-1×s^-1 and the dissociation rate was determined to be approximately 2.8×10^-3 s^-1. To minimize the effects of protein rebinding to the surface of the sensor chip, the dissociation rate was measured in the presence of 50 μM free phosphorylated Raf-1 peptide.
# 14-3-3 beta [2] = biological target: T2, 14-3-3 beta (Homo sapiens, UniProt P31946); assay: Surface plasmon resonance kinetics, 14-3-3 beta binding to phosphorylated Raf-259 peptide; conditions: isoform beta
# T2 construct: made in house; host or cells: E. coli DH5α (vector pGEX-KT)
# T2 sequence (P31946 1-246): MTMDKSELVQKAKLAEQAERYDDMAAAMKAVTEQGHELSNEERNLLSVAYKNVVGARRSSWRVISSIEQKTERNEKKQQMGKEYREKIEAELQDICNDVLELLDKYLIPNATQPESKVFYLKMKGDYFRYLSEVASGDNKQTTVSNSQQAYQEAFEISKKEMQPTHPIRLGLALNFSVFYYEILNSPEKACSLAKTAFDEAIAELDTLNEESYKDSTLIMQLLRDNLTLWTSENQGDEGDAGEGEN
# Method: as §1
# (§2) There are seven known isoforms of 14-3-3 which form homo- and heterodimers in vivo. If different isoforms of 14-3-3 could bind to proteins with distinct specificities, heterodimeric forms of 14-3-3 might function as modular linker proteins, bringing together different proteins into a single complex. We were, therefore, interested in determining whether different 14-3-3 isoforms recognize phosphoserine in a sequence specific fashion. This hypothesis was tested by expressing and purifying three other 14-3-3 isoforms, eta, beta and tau, and measuring their affinity towards the panel of phosphorylated peptides generated above. Using the Surface Plasmon Resonance method, the "on" and "off" rates for 14-3-3 binding to the phosphorylated Raf-259 peptide were calculated (Table 6).
# 14-3-3 tau [3] = biological target: T3, 14-3-3 tau (Homo sapiens, UniProt P27348); assay: Surface plasmon resonance kinetics, 14-3-3 tau binding to phosphorylated Raf-259 peptide; conditions: isoform tau
# T3 construct: made in house; host or cells: E. coli DH5α (vector pGEX-KT)
# T3 sequence (P27348 1-245): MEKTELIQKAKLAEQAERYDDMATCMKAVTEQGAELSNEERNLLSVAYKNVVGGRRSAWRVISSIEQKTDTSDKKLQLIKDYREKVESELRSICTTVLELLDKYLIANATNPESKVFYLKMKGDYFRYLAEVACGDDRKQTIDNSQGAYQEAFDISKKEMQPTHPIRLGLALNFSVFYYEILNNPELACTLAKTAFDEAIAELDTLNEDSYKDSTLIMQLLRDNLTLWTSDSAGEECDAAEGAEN
# Method: as §1, §2
# 14-3-3 zeta [4] = biological target: T1, 14-3-3 zeta; assay: SPR competitive inhibition of 14-3-3 zeta binding to chip-coupled phosphorylated Raf-259 peptide; conditions: 14-3-3 zeta 0.5-1.0 μM; competitor 1-50 μM; relative affinity only
# 14-3-3 eta = biological target: T4, 14-3-3 eta (Homo sapiens, UniProt Q04917); assay: SPR competitive inhibition of 14-3-3 eta binding to phosphorylated Raf-259 peptide; conditions: isoform eta
# T4 construct: made in house; host or cells: E. coli DH5α (vector pGEX-KT)
# T4 sequence (Q04917 1-246): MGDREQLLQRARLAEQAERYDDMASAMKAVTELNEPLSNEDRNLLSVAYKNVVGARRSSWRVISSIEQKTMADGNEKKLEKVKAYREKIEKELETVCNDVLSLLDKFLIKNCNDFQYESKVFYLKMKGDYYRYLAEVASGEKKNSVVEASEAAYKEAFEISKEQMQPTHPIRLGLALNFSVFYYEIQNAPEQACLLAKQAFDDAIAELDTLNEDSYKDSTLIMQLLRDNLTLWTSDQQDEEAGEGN
# Method: (§3) The ability of each peptide to inhibit binding of 14-3-3 zeta to the phosphorylated peptide was then tested in a range of concentrations between 1 and 50 μM. 14-3-3 zeta was prepared according to the methods in Example 1 and binding affinities and specificities were determined using the peptides in Table 2. The 14-3-3 zeta fusion proteins (0.5-1.0 μM) were pre-incubated with a given peptide at concentrations between 1 μM and 50 μM. 14-3-3 zeta was then infused across a sensor chip surface which had been previously coupled with the phosphorylated Raf-259 peptide (SEQ ID NO: 4). IC50 values were determined by plotting the concentration of competitor peptide required to achieve a 50% reduction in equilibrium binding.
# as §2
# (§4) Competitive inhibition with the mutated phosphorylated Raf-1 peptides was used to determine whether their specificities were similar (Table 7). In each case, the calculated IC50 s were very similar to those calculated for 14-3-3 zeta.
# 14-3-3 beta [5] = biological target: T2, 14-3-3 beta; assay: SPR competitive inhibition of 14-3-3 beta binding to phosphorylated Raf-259 peptide; conditions: isoform beta
# Method: as §3, §2, §4
# 14-3-3 tau [6] = biological target: T3, 14-3-3 tau; assay: SPR competitive inhibition of 14-3-3 tau binding to phosphorylated Raf-259 peptide; conditions: isoform tau
# Method: as §3, §2, §4
structure (smiles),measurement,setting,value
CC(C)C[C@H](N)C(=O)N[C@@H](CO)C(=O)N[C@@H](CCC(N)=O)C(=O)N[C@@H](CCCNC(=N)N)C(=O)N[C@@H](CCC(N)=O)C(=O)N[C@@H](CCCNC(=N)N)C(=O)N[C@@H](CO)C(=O)N[C@H](C(=O)N[C@@H](COP(=O)(O)O)C(=O)N[C@H](C(=O)N1CCC[C@H]1C(=O)N[C@@H](CC(N)=O)C(=O)N[C@H](C(=O)N[C@@H](Cc1c[nH]cn1)C(=O)N[C@@H](C)C(=O)O)C(C)C)[C@@H](C)O)[C@@H](C)O [pS-Raf-259] (H-LSQRQRST[pS]TPNVHA-OH),Kd,14-3-3 zeta [1]; read-out: KD,0.122 µM
same,koff,14-3-3 zeta [1]; read-out: koff,0.0028 s⁻¹
same,kon,14-3-3 zeta [1]; read-out: kon,23000 M⁻¹ s⁻¹
same,Kd,14-3-3 beta [2],0.145 µM
same,koff,14-3-3 beta [2],0.0032 s⁻¹
same,kon,14-3-3 beta [2],22000 M⁻¹ s⁻¹
same,Kd,14-3-3 tau [3],0.144 µM
same,koff,14-3-3 tau [3],0.0036 s⁻¹
same,kon,14-3-3 tau [3],25000 M⁻¹ s⁻¹
same,IC50,14-3-3 zeta [4],6 µM and ~6 µM
same,IC50,14-3-3 eta,5 µM
same,IC50,14-3-3 beta [5],6 µM
same,IC50,14-3-3 tau [6],5 µM
